Assay results: patent US8466145B2, “Dipeptidyl peptidase IV inhibitors” (Orchid Chemicals & Pharmaceuticals Limited, priority 2009, dated 2013)

How the values were obtained:
DPP-IV = target: T1, DPP-IV (Homo sapiens, UniProt P27487); assay: DPP-IV inhibition, compounds screened by using human plasma; assay type: biochemical; details: screened by using human plasma (starred examples); for inhibition at 0.3 µM: 300 nM compound concentration
T1 construct: from tissue; host or cells: human plasma (per the earlier reading of the assay)
T1 sequence (P27487 39-766 limits assumed): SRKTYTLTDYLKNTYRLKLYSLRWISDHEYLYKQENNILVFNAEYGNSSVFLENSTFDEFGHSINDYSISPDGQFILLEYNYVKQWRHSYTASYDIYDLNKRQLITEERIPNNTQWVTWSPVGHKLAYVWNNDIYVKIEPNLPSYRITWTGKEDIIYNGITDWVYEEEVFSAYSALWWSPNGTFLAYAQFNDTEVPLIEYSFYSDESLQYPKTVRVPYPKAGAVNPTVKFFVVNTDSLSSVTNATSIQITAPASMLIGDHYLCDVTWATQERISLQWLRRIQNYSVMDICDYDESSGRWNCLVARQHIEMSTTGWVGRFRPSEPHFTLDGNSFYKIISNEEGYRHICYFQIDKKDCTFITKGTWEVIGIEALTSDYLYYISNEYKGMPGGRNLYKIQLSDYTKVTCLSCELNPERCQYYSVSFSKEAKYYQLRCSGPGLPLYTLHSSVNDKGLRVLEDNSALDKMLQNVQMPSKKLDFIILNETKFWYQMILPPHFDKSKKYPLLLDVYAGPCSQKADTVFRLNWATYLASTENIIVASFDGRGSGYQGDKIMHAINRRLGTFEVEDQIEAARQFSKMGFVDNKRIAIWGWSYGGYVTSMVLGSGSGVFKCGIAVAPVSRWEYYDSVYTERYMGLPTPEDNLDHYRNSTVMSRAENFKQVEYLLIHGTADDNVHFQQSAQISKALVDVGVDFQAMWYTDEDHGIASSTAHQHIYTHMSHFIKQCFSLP

| SMILES | melting point [°C] | inhibition at 0.3 µM (DPP-IV) [%] | IC50 (DPP-IV) [nM] |
| --- | --- | --- | --- |
| CC1(C)[C@H](CS(=O)(=O)c2ccc(S(C)(=O)=O)cc2)CC[C@]1(C)NCC(=O)N1C[C@H](F)C[C@H]1C#N [Example 47, (2S,4R)-4-Fluoro-1-(2-((1S,3R)-1,2,2-trimethyl-3-((4-(methylsulfonyl)phenylsulfonyl)methyl)cyclopentylamino)acetyl)pyrrolidine-2-carbonitrile] | 172 to 175 | 13.5 | – |
| CC1(C)[C@@H](CNC(=O)c2ccccc2F)CC[C@@]1(C)NCC(=O)N1C[C@@H](F)C[C@H]1C#N [Example 21, N-(((1S,3R)-3-(2-((2S,4S)-2-Cyano-4-fluoropyrrolidin-1-yl)-2-oxoethylamino)-2,2,3-trimethylcyclopentyl)methyl)-2-fluorobenzamide] | 123 to 127 | – | 330 |
| CC(C)c1noc([C@H]2CC[C@@](C)(NCC(=O)N3C[C@@H](F)C[C@H]3C#N)C2(C)C)n1 [Example 52, (2S,4S)-4-Fluoro-1-(2-((1R,3S)-3-(3-isopropyl-1,2,4-oxadiazol-5-yl)-1,2,2-trimethylcyclopentylamino)acetyl)pyrrolidine-2-carbonitrile] | 91 to 94 | 29.2 | – |
| CN1C[C@]2(C)CC[C@](NCC(=O)N3C[C@H](F)C[C@H]3C#N)(C1)C2(C)C [Example 77, (2S,4R)-4-Fluoro-1-(2-((1R,5R)-3,5,8,8-tetramethyl-3-azabicyclo[3.2.1]octan-1-ylamino)acetyl)pyrrolidine-2-carbonitrile] | 74 to 79 | 13.4 | – |
